From patent publication US7732468B2, “3-aryl-6-aryl-[ 1,2,4]triazolo[3,4-b][1,3,4]thiadiazoles and related compounds as activators of caspases and inducers of apoptosis and the use thereof” (Cytovia, Inc., priority 2006, dated 2010)

Columns and labels:
Assay type in all cases: cell-based
[1] = tested on: human lymphoma cell line Raji; test: Caspase cascade activation in Raji cells; details: RAJ1 cells, 48 h incubation, read-out: caspase potency EC50 RAJ1
Method in brief: (§1)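 48 h compound exposure (0.016–10 μM final), 37 °C, 5% CO2; add 14 μM Ac-DEVD-R110 in lysolecithin/DTT/PIPES pH 7.2; RT 3 h; fluorescence 485/530 nm. Net RFU vs untreated control → EC50 by sigmoidal fit.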

[2] = tested on: Human breast cancer cell lines MDAMB435; test: Inhibition of cell proliferation (GI50) in MDAMB435 cells; details: MDA MB 435 cells, 48 h incubation
Protocol: (§2) Human breast cancer cell lines T-47D, MX1 and MDAMB435, human colon carcinoma cell line HCT116, human leukemia cell line K562, human lymphoma cell line Raji, human B cell lymphoblastoid cell line Ramos, and human Burkitt's lymphoma cell line Namalwa were grown and harvested as in Example 14. An aliquot of […] of cells (4.4×10^4 cells/mL) was added to a well of a 96-well microtiter plate containing 5 μL of a 10% DMSO in RPMI-1640 media solution containing 10 nM to 100 μM of 6-(3,4-dimethoxyphenyl)-3-(2-methoxyphenyl)-[1,2,4]triazolo[3,4-b][1,3,4]thiadiazole (1 nM to 10 μM final). An aliquot of 45 μL of cells was added to a well of a 96-well microtiter plate containing 5 μL of a 10% DMSO in RPMI-1640 media solution without compound as the control sample for maximal cell proliferation (LMax). The samples were mixed by agitation and then incubated at 37° C. for 48 h in a 5% CO2-95% humidity incubator. After incubation, the samples were removed from the incubator and 25 μL of CellTiter-Glo™ reagent (Promega) was added. The samples were mixed by agitation and incubated at room temperature for 10-15 min. Plates were then read using a luminescent plate reader (Model SPECTRAfluor Plus, Tecan) to give Ltest values.
(§3) The samples were mixed by agitation and then incubated at 37° C. for 0.5 h in a 5% CO2-95% humidity incubator. After incubation, the samples were removed from the incubator and 25 μL of CellTiter-Glo™ reagent (Promega) was added. The samples were mixed by agitation and incubated at […] 10-15 min at room temperature in a 5% CO2-95% humidity incubator. Fluorescence was read as above, (LStart) defining luminescence for initial cell number used as baseline in GI50 determinations.
(§4) GI50 (dose for 50% inhibition of cell proliferation) is the concentration where [(LTest−LStart)/(LMax−LStart)]=0.5.

[3] = tested on: human Burkitt's lymphoma cell line Namalwa; test: Caspase cascade activation in Namalwa cells; details: Burkitts lymphoma cell, 48 h incubation, read-out: caspase potency EC50 Namalwa
Method in brief: as §1

[4] = tested on: human lymphoma cell line Raji; test: Inhibition of cell proliferation (GI50) in Raji cells; details: 48 h incubation
Protocol: as §2, §3, §4

[5] = tested on: human B cell lymphoblastoid cell line Ramos; test: Inhibition of cell proliferation (GI50) in Ramos cells; details: 48 h incubation
Protocol: as §2, §3, §4

[6] = tested on: human hepatocellular carcinoma cell line SNU398; test: Caspase cascade activation in SNU398 cells; details: SNU-398, 48 h incubation, read-out: caspase potency EC50 SNU398
Method in brief: as §1

[7] = tested on: human B cell lymphoblastoid cell line Ramos; test: Caspase cascade activation in Ramos cells; details: 48 h incubation, read-out: caspase potency EC50 RAMOS
Method in brief: as §1

[8] = tested on: Human breast cancer cell lines T-47D; test: Caspase cascade activation (Ac-DEVD-R110 fluorogenic substrate) in T-47D cells; details: T47D cells, 48 h incubation, read-out: caspase potency EC50 T47D
Method in brief: as §1

[9] = tested on: human colon carcinoma cell line HCT116; test: Caspase cascade activation in HCT116 cells; details: HCT-116, 48 h incubation, read-out: caspase potency EC50 HCT116
Method in brief: as §1

[10] = tested on: human Burkitt's lymphoma cell line Namalwa; test: Inhibition of cell proliferation (GI50) in Namalwa cells; details: Burkitts lymphoma cell, 48 h incubation
Protocol: as §2, §3, §4

[11] = tested on: human leukemia cell line K562; test: Inhibition of cell proliferation (GI50) in K562 cells; details: 48 h incubation
Protocol: as §2, §3, §4

[12] = tested on: Human breast cancer cell lines MX1; test: Inhibition of cell proliferation (GI50) in MX1 cells; details: 48 h incubation
Protocol: as §2, §3, §4

[13] = tested on: Human breast cancer cell lines T-47D; test: Inhibition of cell proliferation (GI50, CellTiter-Glo) in T-47D cells; details: T47D cells, 48 h incubation
Protocol: as §2, §3, §4

[14] = tested on: human colon carcinoma cell line HCT116; test: Inhibition of cell proliferation (GI50) in HCT116 cells; details: HCT 116 cells, 48 h incubation
Protocol: as §2, §3, §4

[15] = tested on: human cancer cell line H1299; test: Caspase cascade activation in H1299 cells; details: NCI-H1299, 48 h incubation, read-out: caspase potency EC50 H1299
Protocol: Human breast cancer cell lines T-47D, human hepatocellular carcinoma cell line SNU398, human colon carcinoma cell line HCT116, human cancer cell line H11299, human Burkitt's lymphoma cell line Namalwa, human lymphoma cell line Raji, and human B cell lymphoblastoid cell line Ramos were grown according to media component mixtures designated by American Type Culture Collection+10% FCS (Invitrogen Corporation), in a 5% CO2-95% humidity incubator at 37° C. T-47D and H1299 cells were maintained at a cell density between 50 and 80% confluency at a cell density of 0.1 to 0.6×10^6 cells/mL. Cells were harvested at 600×g and resuspended at 0.65×10^6 cells/mL into appropriate media+10% FCS. An aliquot of 22.5 μL of cells was added to a well of a 384-well microtiter plate containing 2.5 μL of a 10% DMSO in RPMI-1640 media solution containing 0.16 to 100 μM of 6-(3,4-dimethoxyphenyl)-3-(2-methoxyphenyl)-[1,2,4]triazolo[3,4-b][1,3,4]thiadiazole or other test compound (0.016 to 10 μM final). An aliquot of 22.5 μL of cells was added to a well of a 384-well microtiter plate containing 2.5 μL of a 10% DMSO in RPMI-1640 media solution without test compound as the control sample. The samples were mixed by agitation and then incubated at 37° C. for 48 h in a 5% CO2-95% humidity incubator. After incubation, the samples were removed from the incubator and 25 μL of a solution containing 14 μM of N-(Ac-DEVD)-N′-ethoxycarbonyl-R110 (SEQ ID No.:1) fluorogenic substrate (Cytovia, Inc.; WO99/18856), 20% sucrose (Sigma), 20 mM DTT (Sigma), 200 mM NaCl (Sigma), 40 mM Na PIPES buffer pH 7.2 (Sigma), and 500 μg/mL lysolecithin (Calbiochem) was added. The samples were mixed by agitation and incubated at room temperature. Using a fluorescent plate reader (Model SPECTRAfluor Plus, Tecan), an initial reading (T=0) was made approximately 1-2 min after addition of the substrate solution, employing excitation at 485 nm and emission at 530 nm, to determine the background fluorescence of the control sample. After the 3 h incubation, the samples were read for fluorescence as above (T=3 h).
The Relative Fluorescence Unit values (RFU) were used to calculate the sample readings as follows: RFU(T=3h)−Control RFU(T=0)=Net RFU(T=3h)
The activity of caspase cascade activation was determined by the ratio of the net RFU value for 6-(3,4-dimethoxyphenyl)-3-(2-methoxyphenyl)-[1,2,4]triazolo[3,4-b][1,3,4]thiadiazole (Example I) or other test compound to that of control samples. The EC50 (nM) was determined by a sigmoidal dose-response calculation (Prism 3.0, GraphPad Software Inc.).

EC50 [1] [nM] | GI50 [2] [nM] | EC50 [3] [nM] | GI50 [4] [nM] | GI50 [5] [nM] | EC50 [6] [nM] | EC50 [7] [nM] | EC50 [8] [nM] | EC50 [9] [nM] | GI50 [10] [nM] | GI50 [11] [nM] | GI50 [12] [nM] | GI50 [13] [nM] | GI50 [14] [nM] | EC50 [15] [nM] | SMILES
5270 | 1070 | 5320 | 8000 | 4000 | 4460 | 5300 | 2690 | 5160 | 9040 | 2730 | 4000 | 4030 | 7920 | 5310 | COc1ccc(-c2nn3c(-c4ccccc4Cl)nnc3s2)cc1OC [F, 3-(2-Chlorophenyl)-6-(3,4-dimethoxyphenyl)-[1,2,4]triazolo[3,4-b][1,3,4]thiadiazole]
274 | 894 | 253 | 9400 | 3000 | 507 | 235 | 561 | 5020 | 7870 | 2490 | 4000 | 3850 | 6220 | 3000 | COc1ccc(-c2nn3c(-c4ccccc4C)nnc3s2)cc1OC [E, 6-(3,4-Dimethoxyphenyl)-3-o-tolyl-[1,2,4]triazolo[3,4-b][1,3,4]thiadiazole]
521 | 136 | 412 | 2000 | 2000 | 300 | 349 | 563 | 523 | 2000 | 2080 | 1030 | 261 | 2000 | 808 | COc1ccc(-c2nn3c(-c4ccccc4OC)nnc3s2)cc1OC [I, 6-(3,4-dimethoxyphenyl)-3-(2-methoxyphenyl)-[1,2,4]triazolo[3,4-b][1,3,4]thiadiazole]
501 | 48 | 344 | 700 | 120 | 261 | 253 | 563 | 537 | 520 | 626 | 400 | 217 | 844 | 733 | COc1ccccc1-c1nnc2sc(-c3ccc(Br)cc3)nn12 [H, 6-(4-Bromophenyl)-3-(2-methoxyphenyl)-[1,2,4]triazolo[3,4-b][1,3,4]thiadiazole]
